According to patent US8557800B2, “Sphingosine kinase inhibitors” (Apogee Biotechnology Corporation, priority 2005, dated 2013):

Tests used:
CDK1/cyclinB = CDK1/cyclinB (Homo sapiens, UniProt P06493); assay: Kinase selectivity panel; assay type: biochemical; conditions: read-out: percent of control activity, CDK1/cyclinB
Description: (§1) A common problem with attempts to develop protein kinase inhibitors is the lack of selectivity toward the target kinase since the majority of these compounds interact with nucleotide-binding domains that are highly conserved among kinases. […] The compound was tested at a single concentration of 50 μM.

Protein kinase C α = Protein kinase C α (Homo sapiens, UniProt P17252); assay: Kinase selectivity panel; assay type: biochemical; conditions: read-out: percent of control activity, Protein kinase C α
Description: as §1

Protein kinase C ε = Protein kinase C ε (Homo sapiens, UniProt Q02156); assay: Kinase selectivity panel; assay type: biochemical; conditions: read-out: percent of control activity, Protein kinase C ε
Description: as §1

Fyn = Fyn (Homo sapiens, UniProt P06241); assay: Kinase selectivity panel; assay type: biochemical; conditions: read-out: percent of control activity, Fyn
Description: as §1

PDK1 = PDK1 (Homo sapiens, UniProt O15530); assay: Kinase selectivity panel; assay type: biochemical; conditions: read-out: percent of control activity, PDK1
Description: as §1

EFGR = EFGR (Homo sapiens, UniProt P00533); assay: Kinase selectivity panel; assay type: biochemical; conditions: read-out: percent of control activity, EFGR
Description: as §1

P38 MAP kinase 1 = P38 MAP kinase 1 (Homo sapiens, UniProt Q16539); assay: Kinase selectivity panel; assay type: biochemical; conditions: read-out: percent of control activity, P38 MAP kinase 1
Description: as §1

Abl = Abl (Homo sapiens, UniProt P00519); assay: Kinase selectivity panel; assay type: biochemical; conditions: read-out: percent of control activity, Abl
Description: as §1

CHK1 = CHK1 (Homo sapiens, UniProt O14757); assay: Kinase selectivity panel; assay type: biochemical; conditions: read-out: percent of control activity, CHK1
Description: as §1

P38 MAP kinase 2 = P38 MAP kinase 2 (Homo sapiens, UniProt Q15759); assay: Kinase selectivity panel; assay type: biochemical; conditions: read-out: percent of control activity, P38 MAP kinase 2
Description: as §1

Aurora-A = Aurora-A (Homo sapiens, UniProt O14965); assay: Kinase selectivity panel; assay type: biochemical; conditions: read-out: percent of control activity, Aurora-A
Description: as §1

cSrc = cSrc (Homo sapiens, UniProt P12931); assay: Kinase selectivity panel; assay type: biochemical; conditions: read-out: percent of control activity, cSrc
Description: as §1

PKBγ = PKBγ (Homo sapiens, UniProt Q9Y243); assay: Kinase selectivity panel; assay type: biochemical; conditions: read-out: percent of control activity, PKBγ
Description: as §1

IKKα = IKKα (Homo sapiens, UniProt O15111); assay: Kinase selectivity panel; assay type: biochemical; conditions: read-out: percent of control activity, IKKα
Description: as §1

cRaf = cRaf (Homo sapiens, UniProt P04049); assay: Kinase selectivity panel; assay type: biochemical; conditions: read-out: percent of control activity, cRaf
Description: as §1

CDK2/cyclinE = CDK2/cyclinE (Homo sapiens, UniProt P24941); assay: Kinase selectivity panel; assay type: biochemical; conditions: read-out: percent of control activity, CDK2/cyclinE
Description: as §1

PKBα = PKBα (Homo sapiens, UniProt P31749); assay: Kinase selectivity panel; assay type: biochemical; conditions: read-out: percent of control activity, PKBα
Description: as §1

PKA = PKA (Homo sapiens, UniProt P17612); assay: Kinase selectivity panel; assay type: biochemical; conditions: read-out: percent of control activity, PKA
Description: as §1

Ca^2+/calmodulin PK IV = Ca^2+/calmodulin PK IV (Homo sapiens, UniProt Q16566); assay: Kinase selectivity panel; assay type: biochemical; conditions: read-out: percent of control activity, Ca^2+/calmodulin PK IV
Description: as §1

MEK kinase 1 = assay: Kinase selectivity panel; assay type: biochemical; conditions: 50 μM
Description: as §1

T24 (bladder) = assay: Human tumor cell line panel, sulforhodamine B; assay type: cell-based; conditions: 48 hours, mean ± sd
[1] = test system: male Lewis rats, adjuvant-induced arthritis; assay: Adjuvant-induced arthritis model; assay type: in vivo, rat
Description: Adjuvant-induced arthritis is another widely used assay that recapitulates many features of human rheumatoid arthritis, and so is useful in the evaluation of new drug candidates. Age- and weight-matched male Lewis rats (150-170 g) were injected subcutaneously in the tail with 1 mg of Mycobacterium butyricum (Difco, killed dried) suspended in 0.1 ml of light mineral oil. Symptoms of immune reactivity were present after 2 weeks. Responsive rats were randomized into treatment groups, and received oral daily doses (1 ml) of: solvent alone (0.375% Tween-80); 100 mg/kg Compound 62; 35 mg/kg Compound 62; or 5 mg/kg Compound 62, or intraperitoneal injections of indomethacin (5 mg/kg) every other day as a positive control. The severity of disease in each animal was quantified by measurement of the hind paw thickness.

DU145 (prostate) = assay: Human tumor cell line panel, sulforhodamine B; assay type: cell-based; conditions: DU-145, 48 hours, mean ± sd
1025LU (melanoma) = assay: Human tumor cell line panel, sulforhodamine B; assay type: cell-based; conditions: 48 hours, mean ± sd

Sequence of Protein kinase C ε (Q02156 whole entry): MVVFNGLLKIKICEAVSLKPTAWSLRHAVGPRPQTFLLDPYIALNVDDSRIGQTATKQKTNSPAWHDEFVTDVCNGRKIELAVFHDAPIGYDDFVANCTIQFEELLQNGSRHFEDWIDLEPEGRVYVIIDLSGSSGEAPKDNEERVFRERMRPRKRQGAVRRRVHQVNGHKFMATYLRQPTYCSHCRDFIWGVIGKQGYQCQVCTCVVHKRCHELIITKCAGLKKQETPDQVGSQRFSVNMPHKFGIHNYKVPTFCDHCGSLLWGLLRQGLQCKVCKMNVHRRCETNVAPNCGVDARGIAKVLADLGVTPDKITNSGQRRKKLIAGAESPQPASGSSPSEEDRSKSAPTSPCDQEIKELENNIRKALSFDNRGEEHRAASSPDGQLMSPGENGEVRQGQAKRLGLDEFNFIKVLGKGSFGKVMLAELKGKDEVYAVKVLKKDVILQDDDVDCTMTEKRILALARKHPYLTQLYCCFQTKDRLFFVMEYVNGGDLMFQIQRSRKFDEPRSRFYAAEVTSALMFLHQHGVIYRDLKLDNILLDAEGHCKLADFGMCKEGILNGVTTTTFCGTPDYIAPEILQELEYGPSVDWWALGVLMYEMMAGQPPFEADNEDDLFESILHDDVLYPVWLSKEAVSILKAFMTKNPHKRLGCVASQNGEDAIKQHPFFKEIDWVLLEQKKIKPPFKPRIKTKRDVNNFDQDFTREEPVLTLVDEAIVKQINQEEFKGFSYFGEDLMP
Sequence of Aurora-A (O14965 whole entry): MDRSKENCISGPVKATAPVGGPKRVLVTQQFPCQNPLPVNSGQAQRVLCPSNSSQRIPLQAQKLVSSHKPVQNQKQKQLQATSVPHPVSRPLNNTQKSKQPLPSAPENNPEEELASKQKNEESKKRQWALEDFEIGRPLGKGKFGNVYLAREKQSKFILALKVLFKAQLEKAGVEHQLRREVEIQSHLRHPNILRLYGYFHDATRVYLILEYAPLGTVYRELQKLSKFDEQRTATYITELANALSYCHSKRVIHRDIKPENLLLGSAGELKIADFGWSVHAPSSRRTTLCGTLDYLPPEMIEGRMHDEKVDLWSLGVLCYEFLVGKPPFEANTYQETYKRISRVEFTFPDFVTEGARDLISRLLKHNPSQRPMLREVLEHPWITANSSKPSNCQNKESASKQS
Sequence of cSrc (P12931 whole entry, species assumed): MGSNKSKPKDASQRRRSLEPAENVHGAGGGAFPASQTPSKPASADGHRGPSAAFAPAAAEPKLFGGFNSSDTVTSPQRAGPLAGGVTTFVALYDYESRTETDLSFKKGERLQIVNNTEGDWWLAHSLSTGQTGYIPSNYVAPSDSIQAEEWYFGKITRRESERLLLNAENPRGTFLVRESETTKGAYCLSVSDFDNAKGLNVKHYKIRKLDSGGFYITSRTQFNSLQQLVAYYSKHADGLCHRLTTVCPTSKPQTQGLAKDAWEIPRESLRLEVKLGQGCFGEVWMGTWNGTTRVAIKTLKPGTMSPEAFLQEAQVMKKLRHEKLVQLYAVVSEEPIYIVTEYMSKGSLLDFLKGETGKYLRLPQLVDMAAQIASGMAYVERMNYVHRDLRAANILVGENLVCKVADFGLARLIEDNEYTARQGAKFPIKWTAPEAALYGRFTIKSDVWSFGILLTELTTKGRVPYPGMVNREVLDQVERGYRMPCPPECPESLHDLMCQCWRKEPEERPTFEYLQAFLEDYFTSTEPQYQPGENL
Sequence of EFGR (P00533 25-1210): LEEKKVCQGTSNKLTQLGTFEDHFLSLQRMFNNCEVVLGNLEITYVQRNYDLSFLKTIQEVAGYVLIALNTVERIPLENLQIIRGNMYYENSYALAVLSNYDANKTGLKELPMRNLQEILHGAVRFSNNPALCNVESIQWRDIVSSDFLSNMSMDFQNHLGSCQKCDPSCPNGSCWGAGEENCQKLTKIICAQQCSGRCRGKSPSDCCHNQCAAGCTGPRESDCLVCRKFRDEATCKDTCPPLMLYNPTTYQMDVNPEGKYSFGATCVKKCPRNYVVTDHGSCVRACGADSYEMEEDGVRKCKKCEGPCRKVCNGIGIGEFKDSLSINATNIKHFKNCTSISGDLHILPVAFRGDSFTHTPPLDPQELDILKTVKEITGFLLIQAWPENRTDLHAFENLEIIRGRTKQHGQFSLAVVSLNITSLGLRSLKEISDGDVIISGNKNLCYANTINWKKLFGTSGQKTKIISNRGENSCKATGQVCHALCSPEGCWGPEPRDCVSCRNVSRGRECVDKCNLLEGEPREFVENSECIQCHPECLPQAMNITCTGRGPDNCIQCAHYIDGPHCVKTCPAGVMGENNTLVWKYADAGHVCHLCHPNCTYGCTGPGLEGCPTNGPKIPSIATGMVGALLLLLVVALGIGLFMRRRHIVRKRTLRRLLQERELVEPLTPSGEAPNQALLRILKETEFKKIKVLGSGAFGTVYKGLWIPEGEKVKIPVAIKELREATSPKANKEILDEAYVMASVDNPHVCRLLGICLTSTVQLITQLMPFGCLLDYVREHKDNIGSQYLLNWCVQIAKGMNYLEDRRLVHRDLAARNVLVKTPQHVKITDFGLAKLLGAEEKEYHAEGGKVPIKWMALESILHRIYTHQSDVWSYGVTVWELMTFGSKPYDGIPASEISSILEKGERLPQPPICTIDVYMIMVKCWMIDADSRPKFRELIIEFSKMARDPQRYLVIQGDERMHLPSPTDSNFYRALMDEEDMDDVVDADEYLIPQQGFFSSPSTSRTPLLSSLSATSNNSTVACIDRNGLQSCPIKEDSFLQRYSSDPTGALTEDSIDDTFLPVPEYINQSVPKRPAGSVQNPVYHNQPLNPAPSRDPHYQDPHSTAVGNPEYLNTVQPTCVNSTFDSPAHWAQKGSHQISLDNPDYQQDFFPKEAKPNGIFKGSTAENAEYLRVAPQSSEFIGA
Sequence of Abl (P00519 whole entry, species assumed): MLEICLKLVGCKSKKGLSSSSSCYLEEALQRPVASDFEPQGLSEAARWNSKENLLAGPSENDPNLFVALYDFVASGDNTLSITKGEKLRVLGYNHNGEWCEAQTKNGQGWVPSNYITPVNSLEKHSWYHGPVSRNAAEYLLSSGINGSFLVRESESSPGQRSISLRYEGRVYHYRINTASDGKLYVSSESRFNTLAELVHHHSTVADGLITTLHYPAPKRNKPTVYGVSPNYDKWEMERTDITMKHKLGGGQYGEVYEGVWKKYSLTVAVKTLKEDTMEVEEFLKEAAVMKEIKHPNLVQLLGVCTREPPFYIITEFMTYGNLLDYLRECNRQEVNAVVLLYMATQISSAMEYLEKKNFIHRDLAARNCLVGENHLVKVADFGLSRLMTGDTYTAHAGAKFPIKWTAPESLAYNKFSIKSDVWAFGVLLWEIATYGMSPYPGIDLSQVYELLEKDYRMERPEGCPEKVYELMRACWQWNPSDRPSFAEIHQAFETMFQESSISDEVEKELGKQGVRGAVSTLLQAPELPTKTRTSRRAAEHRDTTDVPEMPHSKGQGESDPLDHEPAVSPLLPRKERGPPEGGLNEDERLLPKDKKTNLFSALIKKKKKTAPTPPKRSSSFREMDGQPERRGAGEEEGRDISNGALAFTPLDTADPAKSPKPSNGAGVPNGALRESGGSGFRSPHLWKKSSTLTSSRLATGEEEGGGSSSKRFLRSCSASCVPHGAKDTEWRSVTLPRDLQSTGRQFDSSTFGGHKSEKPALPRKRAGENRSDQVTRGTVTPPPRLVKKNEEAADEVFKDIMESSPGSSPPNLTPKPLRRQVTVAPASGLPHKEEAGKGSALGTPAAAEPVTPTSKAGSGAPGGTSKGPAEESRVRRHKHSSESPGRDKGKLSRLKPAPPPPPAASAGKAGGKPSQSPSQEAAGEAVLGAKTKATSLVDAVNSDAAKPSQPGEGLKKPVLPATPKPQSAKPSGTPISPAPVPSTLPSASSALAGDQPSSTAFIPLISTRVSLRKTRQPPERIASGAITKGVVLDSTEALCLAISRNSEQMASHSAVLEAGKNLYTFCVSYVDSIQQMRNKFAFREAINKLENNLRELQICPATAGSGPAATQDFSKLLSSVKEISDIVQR
Sequence of Fyn (P06241 whole entry, species assumed): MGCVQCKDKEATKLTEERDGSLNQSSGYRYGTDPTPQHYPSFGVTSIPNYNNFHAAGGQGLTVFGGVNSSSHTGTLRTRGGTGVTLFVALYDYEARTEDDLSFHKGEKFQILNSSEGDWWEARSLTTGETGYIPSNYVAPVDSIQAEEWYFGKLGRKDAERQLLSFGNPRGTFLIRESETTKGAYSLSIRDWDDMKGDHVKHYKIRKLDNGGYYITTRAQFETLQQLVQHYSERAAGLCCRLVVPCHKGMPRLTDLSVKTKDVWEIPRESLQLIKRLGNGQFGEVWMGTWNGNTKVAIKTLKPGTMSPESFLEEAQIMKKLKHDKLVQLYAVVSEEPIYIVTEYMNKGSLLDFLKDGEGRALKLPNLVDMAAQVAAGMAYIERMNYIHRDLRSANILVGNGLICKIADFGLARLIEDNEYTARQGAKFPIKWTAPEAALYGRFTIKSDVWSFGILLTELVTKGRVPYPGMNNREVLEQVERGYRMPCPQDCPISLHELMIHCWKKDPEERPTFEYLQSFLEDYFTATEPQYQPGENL
Sequence of P38 MAP kinase 1 (Q16539 whole entry): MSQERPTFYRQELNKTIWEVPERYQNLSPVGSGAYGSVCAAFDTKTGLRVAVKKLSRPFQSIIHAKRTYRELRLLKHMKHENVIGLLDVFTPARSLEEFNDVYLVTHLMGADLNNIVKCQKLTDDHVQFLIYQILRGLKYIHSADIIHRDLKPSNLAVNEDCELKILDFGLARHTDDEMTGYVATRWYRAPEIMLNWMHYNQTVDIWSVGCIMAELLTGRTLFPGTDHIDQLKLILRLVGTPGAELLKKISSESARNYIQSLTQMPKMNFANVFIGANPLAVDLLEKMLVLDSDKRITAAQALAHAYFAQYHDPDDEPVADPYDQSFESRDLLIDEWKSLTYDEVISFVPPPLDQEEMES

Question: How did the remaining activity at 50 µM (CDK1/cyclinB) turn out when `O=C(NCc1ccncc1)C12CC3CC(C1)CC(c1ccc(Cl)cc1)(C3)C2` [Compound 62, 3-(4-Chloro-phenyl)-adamantane-1-carboxylic acid (pyridin-4-ylmethyl)-amide] was run?
Answer: 105 ± 1%

Question: And the remaining activity at 50 µM (Protein kinase C α)?
Answer: 86 ± 5%

Question: What about the remaining activity at 50 µM (Protein kinase C ε) of the same molecule?
Answer: 101 ± 1%

Question: What about the remaining activity at 50 µM (Fyn) of the same molecule?
Answer: 84 ± 5%

Question: And the remaining activity at 50 µM (PDK1)?
Answer: 116 ± 3%

Question: What about the remaining activity at 50 µM (EFGR) of the same molecule?
Answer: 101 ± 3%

Question: And the remaining activity at 50 µM (P38 MAP kinase 1)?
Answer: 94 ± 2%

Question: What about the remaining activity at 50 µM (Abl) of the same molecule?
Answer: 98%

Question: And the remaining activity at 50 µM (CHK1)?
Answer: 142 ± 13%

Question: And the remaining activity at 50 µM (P38 MAP kinase 2)?
Answer: 109 ± 5%

Question: And the remaining activity at 50 µM (Aurora-A)?
Answer: 103 ± 1%

Question: And the remaining activity at 50 µM (cSrc)?
Answer: 115 ± 3%

Question: What about the remaining activity at 50 µM (PKBγ) of the same molecule?
Answer: 105 ± 8%

Question: What about the remaining activity at 50 µM (IKKα) of the same molecule?
Answer: 150 ± 16%

Question: And the remaining activity at 50 µM (cRaf)?
Answer: 96 ± 5%

Question: What about the remaining activity at 50 µM (CDK2/cyclinE) of the same molecule?
Answer: 106 ± 6%

Question: What about the remaining activity at 50 µM (PKBα) of the same molecule?
Answer: 95 ± 2%

Question: What about the remaining activity at 50 µM (PKA) of the same molecule?
Answer: 104 ± 5%

Question: And the remaining activity at 50 µM (Ca^2+/calmodulin PK IV)?
Answer: 81 ± 3%

Question: And the “percent of control activity, MEK kinase 1” value (MEK kinase 1)?
Answer: 104 ± 3%

Question: And the IC50 (T24 (bladder))?
Answer: 39.4 ± 7.4 µM

Question: What about the “reduction in the arthritic response (hind paw thickness)” value (“reduction in the arthritic response” below) ([1]; 5 mg/kg oral daily) of the same molecule?
Answer: 13%

Question: What about the “reduction in the arthritic response” value ([1]; 35 mg/kg oral daily) of the same molecule?
Answer: 42%

Question: And the “reduction in the arthritic response” value ([1]; 100 mg/kg oral daily)?
Answer: 76%

Question: What about the IC50 (DU145 (prostate)) of the same molecule?
Answer: 21.9 ± 1.5 µM

Question: What about the IC50 (1025LU (melanoma)) of the same molecule?
Answer: 33.7 ± 2.7 µM
